Data from patent US5906922A, “Delivery of nucleic acids” (Commonwealth Scientific and Industrial Research Organisation, priority 1994, dated 1999).
Like-named read-outs stand apart in the source and are kept apart here. Where a SMILES comes first, the peptide text is derived from it. The star is where a group is joined. NHC(CH2OLauroyl)3 = CCCCCCCCCCCC(=O)OCC(COC(=O)CCCCCCCCCCC)(COC(=O)CCCCCCCCCCC)N*

Assays:
Cos 1 cells [1] = assay: β-gal microtitre plate transfection assay, Cos 1; assay type: cell-based, African Green Monkey
Procedure, shortened: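 Cos 1 cells were transfected with β-galactosidase plasmids (mouse PGK or SV40 early promoter) across varied lipid/DNA ratios in microtitre format. The lipid/DNA ratio giving maximal expression was recorded. Viability was measured with alamar blue or MTS, where higher OD means greater viability.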

CHO cells [2] = assay: β-gal microtitre plate transfection assay, CHO; assay type: cell-based, Chinese Hamster; conditions: Table 3, CHO
From the text: For experiment "c", a plasmid pPGKlaczNLS encoding β-galactosidase under the control of the mouse PGK promoter (kind gift from G.Hannan) or pSVGAL which utilises the SV40 early promoter (Sleigh, M. J. and Lockett, T. J. (1985). EMBO J. 4:3831-3837),was transfected. This experiment and assay were modified from Feigner et al J. Biol Chem. 269(4) 2550-2561 1994. This protocol allows the simultaneous assessment of 72 different combinations and concentrations of DNA and test agent in a microtitre tray. […] Cytotoxicity was assessed using alamar blue, and a sample graph is shown for experiment a.
Each of these compounds was tested for transfection ability and cytotoxicity on standard cell lines using standard conditions as described above.
(§1) The ratio of [lipid]/[DNA] at which that maximum was achieved is shown in brackets for the two different cell types in the following order; (Cos 1) (CHO). Experiments shown were carried out in Cos 1 cells, as described above. Viability was measured with the dye alamar blue . # Denotes compounds tested in a separate experiment. * Viability in this experiment was determined with MTS. OD is a measure of relative viability of the cells exposed to the different agents, and as with alamar blue, a higher value indicates greater cell viability.

Cos 1 cells [3] = assay type: cell-based, African Green Monkey
Procedure, shortened: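 Relative viability of Cos 1 cells exposed to lipid/DNA agents was read as MTS optical density; higher OD means greater viability. Some points came from separate experiments.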

Cos 1 cells [4] = assay type: cell-based, African Green Monkey; remark: listed apart in the source
Procedure, shortened: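 Cytotoxicity of transfection agents (lipid/DNA combinations, β-galactosidase plasmid under PGK or SV40 early promoter) assessed in parallel with transfection. Viability read with alamar blue or, in some runs, MTS OD; higher signal means greater relative viability.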

CHO cells [5] = assay type: cell-based, Chinese Hamster
Description: (LEGEND--FIGS. 7, 8 and 9; none; no agent used with plasmid DNA, rb/blank; reagent blank, number following description of compound indicates no. μl of 2 mM stock (diluted with water). 7b: 100% cell survival was taken from dishes which were "mock transfected" with no DNA or transfection agent. 0% viability was assayed in the absence of cells. Viability was assessed using the dye alamar blue.)
Relative levels of cytotoxicity caused by the different agents were compared during the experiment using the dye "Alamar Blue" (Alamar, Sacramento Calif.).
as §1

Hela cells [6] = assay: β-gal plate transfection assay, Hela; assay type: cell-based, Human; conditions: 48 hours
Description: (§5) Hela cells were seeded in place of Cosl or CHO cells in DME+10% FCS at a density of 2×10^4 /well and transfected with pPGKlaczNLS as described above. At 48 hours, toxicity was determined by alamar blue and the cells processed for the β-gal assay.

CHO cells [7] = assay: Oligonucleotide transfection (18-mer fluoresceinated phosphorothioate), CHO; assay type: cell-based, Chinese Hamster; conditions: 3 hours
Description: (§2) An 18-mer 5'-fluoresceinated phosphorothioate oligonucleotide was transfected into CHO cells. A comparison was made between the ability of K3C7ATL3, K3ATL3 and no-agent, to transfect the oligonucleotide into the cells. The oligonucleotide was serially diluted from 121.2 μM nucleotide, to 60.6 and 30.3 μM nucleotide. The test lipopeptides were serially diluted from 84 μM , to 42 and 21 μM. These dilutions were combined in a 3×3 matrix resulting in concentrations half that described. That is, the top dilution of oligonucleotide became 60.6 μM nucleotide (3.37 μM 18-mer oligonucleotide) and lipopeptide 42 μM. The mix was allowed to incubate for 10 min at room temperature and then overlayed on CHO cells (seeded at 1×10^4 /well the previous day). washed free of serum with DDME, in a total volume of 100 μl. Wells receiving mix with no test agent had the three different concentrations of oligonucleotide overlayed under the same conditions.
(§3) After 3 hours of incubation under standard conditions of 37° C. and 5% CO2, the mix was removed and replaced with 50 μl of DDME. The cells were viewed live under the confocal microscope. The level of fluorescence was so high that the pinhole aperture for the LASER on the BioRad MRC 500 confocal microscope, was shut down to minimum. All images were then collected on the same settings for a quantitative comparison.
After confocal analysis, 100 μl of EMEM+10% FCS was added back to the wells and cells were incubated under standard conditions overnight. Cells were re-examined for fluorescence.

in vitro = assay type: cell-based, Chinese Hamster; conditions: hamster, cho cells
Description: as §2, §3

leg muscle = assay: In vivo transfection (pGFP-N1, intramuscular); set-up: species or system hairless mouse; conditions: 10 μg pGFP-N1, 24 hours
Description: The plasmid pGFP-N1 (Clontech) encoding the Green Fluorescent Protein, was diluted 10 μg (in 10 μl) into 20 μl 5% dextrose in water and then combined with 2.1 μl of 10 mM K3ATL3 (10% DMSO) in 27.9 μl of 5% dextrose in water. After 10 min incubation at room temperature the mixture was injected into the leg muscle of a hairless mouse. The mouse was sacrificed after 24 hours and the muscle snap frozen on dry ice. Frozen sections of the tissue were made and analysed under the confocal microscope for fluorescence.

cells [8] = assay: β-gal reporter transfection, "y" linker non-standard amino acids; assay type: cell-based; conditions: K3 "y" TL3 compounds
Description: Peptide/fatty acyl conjugates were synthesized using the non-standard amino acids amino butyric (C3), amino caproic (C5) and amino caprylic (C7) acids as the linker groups, a tri-lysine nucleic acid binding domain and laurate for the three fatty acyl groups. In these new conjugates the DNA binding and tris/fatty acyl moieties were separated by an extra 3, 5 and 7 carbon bond lengths respectively when compared with the prototype molecule. These compounds were then tested in the standard manner described above to determine their relative capacity to transfect cells.
K3 "y" TL3 compounds, where y=C3, C5, C7, A, L, G were compared for transfection efficiency to each other and the commercial agent Lipofectamine using the standard β-gal reporter gene system described above.

cells [9] = assay: β-gal plate assay of unformulated mixtures of lipopeptides; assay type: cell-based; conditions: previously determined
Description: The optimal level of transfection achieved using the compound K3ATL3 had been previously determined as requiring ^- 5 μM K3ATL3. K3ATL3 was mixed with each of K3ATL1, K3ATL2, K3ATM3, K3ATP3 and K3ATC3 to give a total concentration of lipid of 5 μM in 100 μl at ratios of 0:5, 1:4, 2:3, 3:2, 4:1 and 5:0. K3ATM3 was similarly mixed with K3ATM1, K3ATM2 and K3ATP3. Each of the lipid mixtures was combined with a constant amount of pSVGAL DNA 0.5 μg/well and transfection allowed to proceed normally.
This was further tested by making a 4:1 molar mix of the two lipopeptides K3ATL3 and K3ATM3 and testing them in a standard plate assay which involved doubling dilutions of both the lipopeptide and DNA concentration. This was compared to expression achieved with using the pure compound K3ATL3 under the same conditions.

Hela cells [10] = test system: Hela cells
Description: as §5

PC3 = assay: Transfection of PC3 cells; assay type: cell-based, human; conditions: PC3, FIG. 22a
From the text: (§4) Increasing the length of the linker portion of peptide/fatty acyl conjugates dramatically improves their transfection properties both in overall levels of reporter gene expression and also in the proportion of cells transfected. It is particularly noticable that peak levels of transfection are achieved using these reagents at a relatively low level of toxicity. […] This improved capacity of conjugates with longer linkers to promote transfection appears to be independent of cell type.

Jurkat T cell line = assay: Transfection of Jurkat cells; assay type: cell-based, Human; conditions: FIG. 22b
From the text: as §4

[11] = Electron microscopy of formulated and unformulated compounds; assay type: physicochemical; conditions: rotary shadowed
Description: Solutions of formulated and unformulated compounds were analysed for potential membrane-like structure. In separate experiments the following samples were analysed:
a: Negatively stained samples of formulated compounds K3ATP2:DOPE, DOPE and the unformulated compounds K3C7ATL3 and Lipofectamine.
b: Rotary shadowed samples of K3C7ATL3 and Lipofectamine mixed with two ratios of nucleotide (plasmid).
Stock samples of liposomes at 2 mM, were diluted 1 in 10 with filtered distilled water, and mixed 1:1 with filtered negative stain (Ammonium Molybdate 2%, pH 6.5) and spread onto carbon-formvar coated copper/rhodium 200 mesh electron microscope grids, and examined in a Jeol JEM 100CX electron microscope at 60 kV at magnifications of between 33 k and 100 k.
Ratios of 0.69, and 0.25, of liposome:1 mole DNA nucleotides were diluted in water and mixed for 10 min at room temperature, spread onto carbon-formvar coated grids and rotary metal-shadowed with platinum-palladium (60:40) evaporated at an angle of 7° and examined in the electron microscope at 60 kV at magnifications between 26 k and 66 k.

[12] = [nucleotide] 15.15 μM, [test agent] 10.5 μM
[13] = [nucleotide] 15.15 μM, [test agent] 21 μM
[14] = [nucleotide] 15.15 μM, [test agent] 42 μM
[15] = [nucleotide] 30.3 μM, [test agent] 10.5 μM, *less strongly fluorescing for K3ATL3
[16] = [nucleotide] 30.3 μM, [test agent] 21 μM
[17] = [nucleotide] 30.3 μM, [test agent] 42 μM
[18] = [nucleotide] 60.6 μM, [test agent] 10.5 μM, *less strongly fluorescing for K3ATL3
[19] = [nucleotide] 60.6 μM, [test agent] 21 μM
[20] = [nucleotide] 60.6 μM, [test agent] 42 μM

CCCCCCCCCCCC(=O)OCC(COC(=O)CCCCCCCCCCC)(COC(=O)CCCCCCCCCCC)NC(=O)[C@H](C)NC(=O)[C@H](CCCCN)NC(=O)[C@H](CCCCN)NC(=O)[C@@H](N)CCCCN [K3ATL3] (H-KKKA-{NHC(CH2OLauroyl)3})
transfection, linkers A, L and G compared (Cos 1 cells [1]; "y" linker experiment c, Cos 1, trilysine trilaurate): superior in achieving transfection | ratio [lipid]/[DNA] at which maximum was achieved (Cos 1 cells [1]; Table 2, Cos 1): 1.39 | units β-gal (Cos 1 cells [1]; Table 2, Cos 1, highest reading of 72 conditions): 4.95 × 10^-4 units | β-gal (Cos 1) (Cos 1 cells [1]; Table 3, Cos 1, # tested in a separate experiment): 4.95 × 10^-4 | β-gal (Cos 1) (Cos 1 cells [1]; Table 3, Cos 1, highest reading of 72 conditions): 3.02 × 10^-4 | ratio [lipid]/[DNA] at which maximum was achieved (CHO cells [2]): .69 | β-gal (CHO) (CHO cells [2]; highest reading of 72 conditions): 7.89 × 10^-4 | MTS OD490-655 (Cos 1 cells [3]): 1.363 | Viability (Cos 1) (Cos 1 cells [3]): 1.36 | Viability (Cos 1) (Cos 1 cells [4]): 0.095 | Viability (CHO) (CHO cells [5]): 0.027 | transfection ability, chain length C10 to C16 (Hela cells [6]): peak transfection efficiency at C12 | % cells fluorescing (CHO cells [7]; [12]): 100% | % cells fluorescing (CHO cells [7]; [13]): 100% | % cells fluorescing (CHO cells [7]; [14]): 100% | % cells fluorescing (CHO cells [7]; [15]): 100% | % cells fluorescing (CHO cells [7]; [16]): 100% | % cells fluorescing (CHO cells [7]; [17]): 100% | % cells fluorescing (CHO cells [7]; [18]): 100% | % cells fluorescing (CHO cells [7]; [19]): 100% | % cells fluorescing (CHO cells [7]; [20]): 100% | cytotoxicity at 3 h, 42 µM (in vitro): > 90% | GFP fluorescence in motor end-plates (leg muscle): very strong fluorescence was seen in the motor end-plates | GFP fluorescence in muscle cells (leg muscle): Punctate fluorescence was observed in the cytoplasm of muscle cells | transfection efficiency compared to Lipofectamine (cells [8]): more efficient at transfection than Lipofectamine | concentration required for optimal transfection (cells [9]): ~5 µM | cell viability (Hela cells [10]): peak level of cell viability

CCCCCCCCCCCC(=O)OCC(COC(=O)CCCCCCCCCCC)(COC(=O)CCCCCCCCCCC)NC(=O)CCCCCCCNC(=O)[C@H](CCCCN)NC(=O)[C@H](CCCCN)NC(=O)[C@@H](N)CCCCN [K3C7TL3]
transfection compared to lipofectamine (PC3): more effective transfection reagent than lipofectamine | transfection compared to lipofectamine (Jurkat T cell line): more effective transfection reagent than lipofectamine | % cells fluorescing (CHO cells [7]; [12]): 100% | % cells fluorescing (CHO cells [7]; [13]): 100% | % cells fluorescing (CHO cells [7]; [14]): 100% | % cells fluorescing (CHO cells [7]; [15]): 100% | % cells fluorescing (CHO cells [7]; [16]): 100% | % cells fluorescing (CHO cells [7]; [17]): 100% | % cells fluorescing (CHO cells [7]; [18]): 100% | % cells fluorescing (CHO cells [7]; [19]): 100% | % cells fluorescing (CHO cells [7]; [20]): 100% | cytotoxicity at 3 h, 42 µM (in vitro): > 90% | DNA incorporation ([11]; lipopeptide : nucleotide ratio 0.69 (optimal)): most of the DNA was incorporated into collections of liposomes | DNA free in solution ([11]; ratio 0.25:1 (suboptimal)): a large amount of DNA was free in the solution | transfection efficiency compared to Lipofectamine (cells [8]): more efficient at transfection than Lipofectamine | transfection efficiency compared to standard single amino acid linker (cells [8]): dramatically more efficient than compounds using the standard single amino acid linker
